According to ChEMBL document CHEMBL3507680, “University of Dundee, Gates Library screen for HepG2 cell viability”:

Test: Human HepG2 cell viability assay in 384 well format
Format: toxicity, cell-based
Parameters: dose 125 nL, time 70.5 hour; cytotoxicity at 70.5 h: concentration not given beside the values
Details: HepG2 cells, read-out: Inhibition

Point of comparison: `O=C(Cc1cccc(F)c1)NCCNS(=O)(=O)C1CCCC1`, cytotoxicity at 70.5 h -12.5%. Against it:
- COc1ccc(Cl)cc1CN(C)CC(=O)/N=c1\cc[nH]n1C(C)C1CC1 (centres undefined) — higher, 20.8%
- CCc1n[nH]c(C2CN(Cc3ncc(CC)o3)CCO2)n1 (centres undefined) — higher, 51.9%
- CN1CCCN(CCCNC2CCc3cc4c(cc32)OCCO4)CC1 (centres undefined) — higher, 8.36%
- CCN(C(=O)c1cc2c([nH]c1=O)CCCC2=O)C1CCCCC1 — higher, -5.73%
- CCN(C(=O)CN1CCCC1c1ccc(F)cc1)c1ccccc1C (centres undefined) — higher, -3.01%
- CCN(C(=O)CN1CCCC1c1ccc(OC)cc1)c1ccccc1 (centres undefined) — higher, 2.59%
- CCOc1ccccc1OCC(=O)NCc1ncc(C)c(OC)c1C — higher, -10.2%
- COc1ccccc1OCC(=O)NCc1ncc(C)c(OC)c1C — higher, 11.5%
- CN(Cc1cnn(C)c1)C(=O)C1COCC(=O)N1Cc1ccccc1 (centres undefined) — higher, -4.96%
- COc1c(C)cnc(CNC(=O)CCOCc2ccccc2)c1C — higher, -3.15%
- CC(C)c1cccc(-n2cc(O)c(C(=O)O)n2)c1 — higher, -5.44%
- CNC(=O)c1ccc(CNC(=O)c2cc(C(C)C)n(C)n2)cc1 — higher, 10.9%
- CCCN(C(=O)c1cc2c([nH]c1=O)CCCC2=O)C1CCCCC1 — higher, 27.9%
- CC(c1ccco1)N(C(=O)c1cc2c([nH]c1=O)CCCC2=O)C1CC1 (centres undefined) — higher, 2.68%
- CCC(C)n1cnc(S(=O)(=O)N(C)C)c1 (centres undefined) — higher, 14.5%
- CCC(C)n1cnc(S(=O)(=O)N(Cc2cccnc2)C(C)C)c1 (centres undefined) — higher, 3.97%
- CCC(C)n1cnc(S(=O)(=O)N(C)c2cccnc2N(C)C)c1 (centres undefined) — higher, -7.28%
- COc1ccc2c(c1)C(NCCc1ccccn1)CCCO2 (centres undefined) — higher, 16.8%
- O=c1[nH]nc(CNc2ncc(Cl)cn2)[nH]1 — higher, 28.8%
- O=C(CN1CCCc2c(F)cc(Br)cc21)N1CCN(C(=O)C2CC2)CC1 — higher, 17.8%
- COCCN(CCOC)C(=O)NC1CCCCC1 — higher, -4.8%
- COCc1nc(CNc2cccc(-c3nc(C)c(C)o3)c2)cs1 — lower, -16.1%
- CC(C)c1cccc(-n2cc(O)c(C(=O)NCCCn3cccn3)n2)c1 — higher, -5.65%
- COc1ccc2c(c1)C(NCCc1ncc(C)s1)CCCO2 (centres undefined) — higher, -7.84%
- COCC(=O)NCCSCCOc1cccc(Br)c1 — higher, 32%
- CC(C)(O)CN1CCN(C(=O)COCC2CC2)CC1 — higher, 2.07%
- O=C(CCCc1ccccn1)NCC(O)c1c(F)cccc1F (centres undefined) — higher, -1.43%
- Cc1nc(C2CCCN2C(=O)CN(C)Cc2ccccc2)no1 (centres undefined) — higher, -2.86%
- CC(c1cccnc1)N1CCN(CCO)CC1 (centres undefined) — higher, 7.45%
- NC(=O)NC(CC(=O)NCCc1cccc(F)c1)c1ccccc1 (centres undefined) — higher, -6.09%
- NC(=O)NC(CC(=O)NCCc1ccc(F)cc1)c1ccccc1 (centres undefined) — higher, 1.48%
- CCC(O)CN(CC(=O)Nc1cc(C)no1)c1ccccc1 (centres undefined) — higher, -3.59%
- CC(C)(C)C(O)CN1CCN(C(=O)COCC2CC2)CC1 (centres undefined) — higher, 1.65%
- CC(C)(O)CN1CCN(C(=O)COCC(F)(F)F)CC1 — higher, 15.1%
- COc1cccc(SCC(=O)N2CCCC(N3CCCC3=O)C2)c1 (centres undefined) — higher, -1.58%
- O=C(CSc1ccccc1)N1CCC(N2CCCCC2=O)CC1 — higher, 19%
- CCN(Cc1ccoc1)C(C(N)=O)c1ccc(Br)cc1 (centres undefined) — higher, 16.2%
- CC(C)C(O)CNC(=O)CCCc1ccccn1 (centres undefined) — higher, 2.25%
- CCCc1ccc(S(=O)(=O)NC2(CC(N)=O)CCC2)cc1 — higher, 1.66%
- Cc1[nH]ncc1C(C)NCc1cccnc1 (centres undefined) — higher, 5.33%
- CC(=O)Nc1ccc(C(=O)N2CCOc3nc(C)ccc32)cc1 — higher, -0.0601%
- COCC(=O)NCCc1ccc(Cl)s1 — higher, -9.93%
- O=C(CN1CCN(CCO)CC1)NC(C1CC1)C1CC1 — higher, -5.18%
- CCN(Cc1ccc(Cl)s1)S(=O)(=O)CC — higher, 0.4%
- CCN(Cc1ccc(Cl)s1)S(=O)(=O)CCOC — lower, -13.3%
- c1csc(CCN2CCCC2c2noc(C3CC3)n2)c1 (centres undefined) — higher, -7.22%
- Cc1nc(C2CCCN2CCc2cccs2)no1 (centres undefined) — higher, -10.4%
- CC(C(=O)N1CCc2sccc2C1)N1CCCN(C2CC2)CC1 (centres undefined) — higher, -10.7%
- Cc1nc(C2CCCN2CCc2ccccn2)no1 (centres undefined) — higher, -5.46%
- Cn1ccc(C(=O)NCc2cccc(Cn3ccnc3)c2)cc1=O — higher, -4.36%
- Cc1nccn1Cc1cccc(CNC(=O)c2ccn(C)c(=O)c2)c1 — higher, 13.1%
- Cc1ccc2nc(NCCCN3CCCCCC3=O)n(C)c(=O)c2c1 — lower, -20%
- Cc1nc(NC(=O)C(C)S(C)(=O)=O)sc1Cc1ccc(F)cc1 (centres undefined) — higher, 7.99%
- Cc1ccc(Cc2sc(NC(=O)C(C)S(C)(=O)=O)nc2C)cc1 (centres undefined) — higher, -3.98%
- Cn1nc(C(=O)NCc2cccc(Cn3ccnc3)c2)ccc1=O — higher, 3.47%
- CC(=O)NC1CCCN(C(=O)Nc2nnc(C(C)C)s2)C1 (centres undefined) — higher, 0.76%
- CC(C(=O)N1CCc2sccc2C1)N1CCC(N2CCCC2)CC1 (centres undefined) — higher, 0.91%
- COc1cc(OC)c(CNC(=O)NCc2ccc(C#N)cc2)c(OC)c1 — higher, 3.35%
- N#Cc1ccc(NC2CCN(c3ncccn3)CC2)cc1Cl — higher, 7.18%
- Cc1cc(C(=O)NS(C)(=O)=O)ccc1I — higher, -4.1%
- Cn1ncnc1NS(=O)(=O)c1ccc(F)cc1 — higher, -0.583%
- Cc1c(CNC(=O)C2CCCN2C(=O)C2CC2)oc2ccccc12 (centres undefined) — higher, -7.22%
- CCc1nsc(NC2CCOC3(CCCC3)C2)n1 (centres undefined) — higher, 1.42%
- CC(C)c1nnc(CNc2nc(-c3cccnc3)nc3c2CCC3)n1C — higher, -1.97%
- COC(=O)CCN1CCC(NC(=O)OC(C)(C)C)CC1 — higher, 1.05%
- CCOCc1nnc(NCc2cccc(C)c2)o1 — higher, -3.75%
- CS(=O)(=O)N1CCC(Nc2ccc(C#N)c(C(F)(F)F)c2)CC1 — higher, 8.33%
- Cc1ncc(CN(C)CC(O)c2ccc(OC(F)(F)F)cc2)s1 (centres undefined) — higher, -3.36%
- Cc1occc1CNC(=O)C1CCCN1C(=O)C1CC1 (centres undefined) — higher, -6.76%
- CCc1nc(C2CCCN2CCc2cccs2)no1 (centres undefined) — higher, 17.3%
- Cc1ccc2cccc(S(=O)(=O)N(C)C3CCCN(C)C3)c2n1 (centres undefined) — higher, 0.353%
- CCc1nccn1CC(=O)Nc1cccc(C(=O)N(C)C)c1 — higher, 7.42%
- COC(=O)CNC(=O)CCCn1cnc2ccccc2c1=O — higher, -1.4%
- O=C(CCn1c(=O)oc2ccccc21)NCC(O)c1ccc(Cl)cc1 (centres undefined) — higher, 9.7%
- Cc1cc(CN(C)C(=O)CN2CCCCCC2=O)no1 — higher, -10.3%
- Cc1cc(NC(=O)Cc2ccc3c(c2)OCO3)n(C)n1 — higher, -0.417%
- O=C(CC1CCCO1)NCCCC(=O)Nc1ccc(Cl)cc1 (centres undefined) — higher, -7.07%
- CCOC(C)C(=O)NCCNS(C)(=O)=O (centres undefined) — higher, -6.01%
- O=C(Cc1ccccc1)NCCNS(=O)(=O)C1CCCCC1 — higher, -2.64%
- CCCS(=O)(=O)NCCc1ncc(C)s1 — higher, -11.1%
- CN(C)S(=O)(=O)N1CCN(C(=O)OC(C)(C)C)CC12CCCCC2 — higher, -6.87%
- CC(C)(NS(C)(=O)=O)c1nc(-c2ccc(F)cc2Cl)no1 — higher, -6.02%
- CC(C)(NS(C)(=O)=O)c1nc(-c2cccc(Cl)c2)no1 — higher, -4.4%
- Cn1ccc(NCc2cc3cc(F)ccc3o2)n1 — higher, -4.66%
- CCN(CC)S(=O)(=O)N1CCCN(CC2CCCO2)CC1 (centres undefined) — higher, 23.8%
- CC1c2ccsc2CCN1Cc1cc2c(cc1O)OCO2 (centres undefined) — higher, -5.73%
- OC(CNC1CCOCC1)c1cccc(OCc2ccccc2)c1 (centres undefined) — higher, -10.5%
- CNC(=O)NCC(CO)Cc1cccc(OC(F)(F)F)c1 (centres undefined) — higher, -8.42%
- CCN(CC)c1ncc(CNCC2CCCn3ccnc32)s1 (centres undefined) — higher, 8.16%
- Cc1ncc(CNCC(=O)NC2CCCCC2)n1-c1ccccc1 — higher, 9.11%
- Cc1ccc(C)c(C(O)CN(C)Cc2nnc3ccccn23)c1 (centres undefined) — higher, 9.37%
- CC1CCCN(c2ccccc2OCC(=O)NC2CCOCC2)C1 (centres undefined) — higher, 28.3%
- O=C(CCc1ccsc1)N(Cc1ccccn1)C1CC1 — higher, -2.46%
- CCC(C)NC(=O)c1ccc(-c2ccco2)[nH]c1=O (centres undefined) — higher, -5.06%
- CC(COCC(F)(F)F)NC(=O)c1ccc(-c2ccco2)[nH]c1=O (centres undefined) — higher, -1.67%
- CC(C)NC(=O)CNC(=O)C12CCC(=O)N1c1cc(Cl)ccc1S2 (centres undefined) — higher, -0.426%
- CC(C)c1ccc(CS(=O)(=O)Cc2nc(N)nc(N(C)C)n2)cc1 — higher, -6.09%
- COCC(=O)N1CCN(C(=O)CCc2ccsc2)CC1 — higher, -3.39%
- CC1CCCN(c2ccccc2OCC(=O)N2CCOCC2)C1 (centres undefined) — higher, 17.5%
- Cc1nc(-c2ccccc2)sc1CSCCS(C)(=O)=O — higher, 1.82%
- Nc1cc2c(nn1)CCN(C(=O)c1csc(-c3cccs3)n1)C2 — higher, -6.75%
- Cc1nc(C(=O)NC2CCN(CCOc3ccc(Br)cc3)CC2)cs1 — higher, 1.52%
- Cc1nc(-c2ccccc2)sc1CSC(C)C(N)=O (centres undefined) — higher, -1.25%
- CCOCc1cnc2n1CCN(C(=O)c1ccoc1C)C2C (centres undefined) — higher, 9.87%
- COCC(=O)N1CCO[C@]2(CCC[C@H]2COC)C1 — higher, 9.79%
- O=C([C@H]1C[C@@H]2CN(c3ncc(F)cn3)C[C@H]1O2)N1CCOCC1 — higher, -7.72%
- Cc1ncnc2c1CCN(S(=O)(=O)C1CC1)CC2 — lower, -13.2%
- CS(=O)(=O)NCc1noc2c1CN(C(=O)C1CCC1)CC2 — higher, -8.52%
- CNC(=O)CC1CC2(CCNCC2)c2cc(F)ccc21 (centres undefined) — higher, -3.61%
- c1cncc(CN2CCn3cc(CN4CCCCC4)nc3C2)c1 — higher, -5.48%
- Cc1n[nH]c2ncc(CNC3CCCN(c4ncccn4)C3)cc12 (centres undefined) — higher, 0.0496%
- CN(C)C(=O)COC1COC2(CCN(CC3CCOCC3)CC2)C1 (centres undefined) — higher, -4.78%
- COC1COC2(CCN(CC3CCOCC3)CC2)C1 (centres undefined) — higher, -11.1%
- CN1CCN(c2ncnc3c2CCN(S(=O)(=O)C2CC2)CC3)CC1 — higher, -11.6%
- CCc1cnc(N2C[C@H]3C[C@H](C(=O)N4CCOCC4)[C@@H](C2)O3)nc1 — higher, -6.74%
- CN(C)CCO[C@H]1CN(CC2CC2)[C@@H]2CCCO[C@H]12 — higher, 11.6%
- COCC1CC2(CCN(c3cccc(C)n3)CC2)CN1C(C)C (centres undefined) — higher, -8.05%
- CS(=O)(=O)NCc1cn2c(n1)CN(Cc1cccnc1)CC2 — higher, 9.87%
